Source: paper PMC11373361, “Expanding the inhibitor space of the WWP1 and WWP2 HECT E3 ligases” (Journal of Enzyme Inhibition and Medicinal Chemistry, 2024)
pIC50: −log10 of the molar value. Values joined by “and” are separate entries in the source; they are usually repeats but may differ in a detail not shown here. Equal entries are not always repeated. Values belong to the compound of their own block, whether it stands above or below them.

Columns and labels:
WWP2-FL = target: T1, WWP2-FL (Homo sapiens, UniProt O00308); experiment: WWP2 ELISA autoubiquitination assay; type: biochemical; settings: for relative activity, single-shot autoubiquitination: 1 mM compound, hit threshold less than 50% relative activity; for relative autoubiquitination activity, single-shot: 500 µM compound, normalised to 0% and 100% controls
T1 construct: full-length WWP2 (WWP2-FL); made in house; host or cells: E. coli BL21-CodonPlus RP (plasmid pGEX2T-WWP2-FL, Dr Andrew Chantry's Lab)
T1 sequence (O00308 whole entry): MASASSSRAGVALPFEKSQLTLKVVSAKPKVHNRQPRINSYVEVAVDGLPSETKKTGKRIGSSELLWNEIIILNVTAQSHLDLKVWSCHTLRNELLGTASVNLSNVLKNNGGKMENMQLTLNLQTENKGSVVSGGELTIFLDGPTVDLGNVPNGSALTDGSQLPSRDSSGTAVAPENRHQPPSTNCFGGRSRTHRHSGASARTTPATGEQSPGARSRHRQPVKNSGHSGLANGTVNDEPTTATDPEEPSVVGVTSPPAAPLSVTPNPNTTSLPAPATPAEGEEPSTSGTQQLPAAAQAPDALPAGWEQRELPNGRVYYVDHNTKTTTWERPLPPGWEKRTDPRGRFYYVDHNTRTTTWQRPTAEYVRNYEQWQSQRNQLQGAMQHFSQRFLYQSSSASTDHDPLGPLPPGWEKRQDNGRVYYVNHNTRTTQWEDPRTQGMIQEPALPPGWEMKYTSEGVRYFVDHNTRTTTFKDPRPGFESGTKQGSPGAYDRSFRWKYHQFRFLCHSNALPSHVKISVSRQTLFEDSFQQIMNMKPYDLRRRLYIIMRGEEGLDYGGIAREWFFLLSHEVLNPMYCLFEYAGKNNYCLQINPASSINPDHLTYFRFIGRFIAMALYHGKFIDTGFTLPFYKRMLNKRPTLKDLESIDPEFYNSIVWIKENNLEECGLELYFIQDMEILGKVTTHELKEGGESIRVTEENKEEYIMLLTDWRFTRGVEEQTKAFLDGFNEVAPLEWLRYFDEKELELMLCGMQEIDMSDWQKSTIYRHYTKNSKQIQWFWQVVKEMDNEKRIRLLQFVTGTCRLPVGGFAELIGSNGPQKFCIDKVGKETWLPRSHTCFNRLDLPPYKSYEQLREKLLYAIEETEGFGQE
Experimental: (§1) Cell lysate containing His-tagged WWP1-L34H or GST-tagged WWP2-FL proteins were incubated on either 96-well Clear Pierce glutathione or nickel-coated plates for 1 h in PBS. Reaction mixtures of either 3 ng/well GST-Uba1 and 15 ng/well UbcH7 or 10 ng/well His-Uba1 and 150 ng/well His-UbcH7 were incubated together in 25 mM Tris pH 8.0, 100 mM NaCl, 4 mM MgCl2 containing 60 ng/well FLAG-ubiquitin and 1.25 mM ATP for 40 min. A prior 1% BSA plate blocking step is required for nickel-coated plates. After plate washing, 2 μL of the compound was added at the desired concentration (0.1 – 1% DMSO) followed by 18 μL of the reaction mixture. This was then incubated for 2 h with 0% and 100% controls before 100 μL of anti-FLAG M2-Peroxidase HRP (1: 10,000 PBST) was added to each well and incubated for 1 h. Finally, 100 μL of 1 × TMB substrate solution (Invitrogen) was added to each well and incubated for up to 10 min until sufficient blue colour change was observed. To stop the reaction, 100 μL of 1 M HCl was added. GST-tagged Uba1 counter-assay followed a similar protocol first incubating cell lysate for 1 h before adding 20 µL of reaction mixture containing 60 ng/well FLAG-ubiquitin, 1.25 mM ATP, and 1 mM compound at 1% DMSO. His-tagged UbcH7 counter-assays preincubated 3 ng/well GST-Uba1 and 200 ng/well UbcH7 with the reaction mixture components (60 ng/well FLAG-ubiquitin, 1.25 mM ATP, and 1 mM compound at 1% DMSO) for 1 h before incubating onto nickel-coated plates for a further 1 h. All other steps were followed. The plates were washed three times with PBST (and 15 mM Imidazole) between each step. Quantification was measured by absorbance read at 450 nm, standardised to the 0% and 100% activity controls. A visual representation of the assay steps is shown in SI Figure S13. All assay optimisations have been previously reported by Watt and colleagues. IC50 non-linear regression curves were calculated in GraphPad v10.2 (Prism).
(§2) The DSF hit compounds were initially screened using a single-shot WWP1 and WWP2 ELISA autoubiquitination assay at 500 µM compound (1% DMSO), measuring inhibition against their relative autoubiquitination activity following protocols previously described. […] Four NSC compounds for WWP1 (13151, 73735, 85433 & 637578) and three NSC compounds for WWP2 (26112, 57103 & 217913) were initially selected having a threshold of less than 50% relative activity when compared to 0% and 100% controls (Figure 2).
(§3) The resulting synthesised analogues were screened using the single-shot ELISA autoubiquitination assay at 1 mM compound concentration (1% DMSO) before IC50 values were calculated for hit compounds (SI Figure 2–4).
ELISA Autoubiquitination Assay
Figure S13. Schematic diagram of the WWP2 ELISA autoubiquitination assay. (1a) Immobilisation of GST-Tagged WWP2 on glutathione coated plates. The GST-tagged (green) WWP2-FL (orange) is bound to glutathione (black), further linked via an SSMPB linker (pink) bound to haemoglobin (red). (1b) Reaction mixture of His-E1, His-E2 and flag-tagged Ub. Flag-tagged (red) Ub (dark pink) is first charged to Uba1/E1 (light pink) using ATP (blue) and then transferred to UbcH7/E2 (light brown).
(2) Ub charged E2 incubation with immobilised WWP2. UbcH7/E2 transfers flag-tagged Ub to WWP2 before WWP2 auto-ubiquitination occurs in the absence or presence of compounds (blue). (3) Incubation of recombinant HRP anti-flag antibody with auto-ubiquitinated WWP2. Anti-flag antibody (purple) containing recombinant HRP (orange) associates with the flag-tagged Ub. (4) HRP-mediated oxidation of TMB.
Single-electron oxidation of TMB by HRP in the presence of HO creates first a blue colour change, before acidification results in a yellow colour change (450 nm) stopping

UbcH7 = target: T2, UbcH7 (Homo sapiens, UniProt P68036); experiment: UbcH7 counter autoubiquitination assay; type: biochemical; settings: 1 mM compound, 1% DMSO, in Table S6 73735 and 217913 synthesised
T2 construct: made in house; host or cells: E. coli BL21-CodonPlus RP (plasmid pET3a-UbcH7 His, gifted by Professor Martin Scheffner)
T2 sequence (P68036 whole entry): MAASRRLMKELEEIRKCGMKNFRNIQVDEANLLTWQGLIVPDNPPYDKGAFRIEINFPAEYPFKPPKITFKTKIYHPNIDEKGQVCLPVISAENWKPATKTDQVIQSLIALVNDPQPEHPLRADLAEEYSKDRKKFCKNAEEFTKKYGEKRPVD
Experimental: as §1
These preliminary hit compounds were further screened in dose-dependent ELISA autoubiquitination assays from 500 µM − 5 nM, with three NSC compounds for WWP1 (13151, 73735 & 85433) and only two NSC compounds for WWP2 (57103 & 217913) showing a dose-response (SI Table S4). […] To ensure the intended target was being inhibited and not the […] Uba1 (E1) and UbcH7 (E2) enzymes used in the catalytic cascade of the assay, a counter autoubiquitination screen was utilised. Upon counter-activity analysis, only with NSC-217913 did UbcH7 retain more than 90% activity and so this was selected as the sole validated hit compound from our inhibition screen (SI Table S6).

WWP1-L34H = target: T3, WWP1-L34H (Homo sapiens, UniProt Q9H0M0); experiment: WWP1 ELISA autoubiquitination assay; type: biochemical; settings: for relative activity, single-shot autoubiquitination: 1 mM compound, hit threshold less than 50% relative activity; for relative autoubiquitination activity, single-shot: 500 µM compound, normalised to 0% and 100% controls
T3 construct: WWP1- 2,3-linker-WW3-WW4-HECT (WWP1-L34H); made in house; host or cells: E. coli BL21-CodonPlus RP (plasmid pET32a-WWP1-L34H, gifted by Dr Wenyu Wen)
Experimental: as §1, §2, §3

[1] = sample used directly from the NCI library, dose range 500 µM - 5 nM
[2] = synthesised compound, WWP1-L34H, 1% DMSO, 95% CI range in brackets
[3] = synthesised compound, WWP2-FL, 1% DMSO, 95% CI range in brackets

relative activity, single-shot autoubiquitination (WWP2-FL; 1% DMSO): some decrease in activity
Compound: CCOC(=O)Cc1cn2cc(Cl)nc(Cl)c2n1 [Compound 4, Ethyl 6,8-Dichloroimidazo[1,2-a]pyrazine-2-acetate]

relative activity, single-shot autoubiquitination (WWP2-FL; 1% DMSO): some decrease in activity
Compound: CCOC(=O)CSc1nc2nc(Cl)cnc2[nH]1 [Compound 5, Ethyl 2-({5-chloro-1H-imidazo[4,5-b]pyrazine-2-yl}sulfanyl)acetate]

relative autoubiquitination activity, single-shot (WWP2-FL; 1% DMSO): less than 50%
pIC50 (WWP2-FL; [1]): > 4.00 and 4.16
WWP2 IC50 (WWP2-FL; synthesised compound, WWP2-FL, 1% DMSO, 95% CI range in brackets, listed as 6/217913): Unstable^a
WWP2 IC50 (WWP2-FL; synthesised compound, WWP2-FL, 1% DMSO, 95% CI range in brackets, listed as NSC-217913): too weak to determine accurately
UbcH7 Activity (UbcH7): 92.2 ± 1.1%
UbcH7 Activity (UbcH7; listed as NSC-217913): more than 90%
pIC50 (WWP1-L34H; [1]): 4.48
pIC50 (WWP1-L34H; [2]): 3.80
Compound: CCOC(=O)CSc1nc2nc(Cl)c(Cl)nc2[nH]1 [Compound 6, Ethyl 2-({5,6-dichloro-1H-imidazo[4,5-b]pyrazine-2-yl}sulfanyl)-acetate]

pIC50 (WWP2-FL; [3]): 3.07
WWP2 IC50 (WWP2-FL; [3]): only limited inhibition
UbcH7 Activity (UbcH7): 94.2 ± 0.8%
Compound: N#CCSc1nc2nc(Cl)c(Cl)nc2[nH]1 [Compound 7, 2-({5,6-Dichloro-1H-imidazo[4,5-b]pyrazine-2-yl}sulfanyl)acetonitrile]

pIC50 (WWP2-FL; [3]): 3.21
relative activity, single-shot autoubiquitination (WWP1-L34H; 1% DMSO): failed to reach the activity threshold
Compound: O=C(CSc1nc2nc(Cl)c(Cl)nc2[nH]1)N1CCOCC1 [Compound 9, 2-({5,6-dichloro-1H-imidazo[4,5-b]pyrazine-2-yl}sulfanyl)acetylmorpholine]

relative activity, single-shot autoubiquitination (WWP2-FL; 1% DMSO): better single-shot data
relative activity, single-shot autoubiquitination (WWP1-L34H; 1% DMSO): better single-shot data
Compound: CCOC(=O)CNC(=O)CSc1nc2nc(Cl)c(Cl)nc2[nH]1 [Compound 12, Ethyl 2-({5,6-dichloro-1H-imidazo[4,5-b]pyrazine-2-yl}sulfanyl)acetamidoacetate]

pIC50 (WWP2-FL; [3]): 3.22
relative activity, single-shot autoubiquitination (WWP1-L34H; 1% DMSO): failed to reach the activity threshold
Compound: O=C(O)CCSc1nc2nc(Cl)c(Cl)nc2[nH]1 [Compound 13, 3-({5,6-Dichloro-1H-imidazo[4,5-b]pyrazine-2-yl}sulfanyl)propionic acid]

pIC50 (WWP2-FL; [3]): 3.18
WWP2 IC50 (WWP2-FL; [3]): only weakly
UbcH7 Activity (UbcH7): 93.0 ± 1.0%
pIC50 (WWP1-L34H; [2]): 3.43
melting point: 219.1 to 220.7 °C
Compound: O=C(O)CSc1nc2nc(Cl)c(Cl)nc2[nH]1 [Compound 15, ({5,6-dichloro-1H-imidazo[4,5-b]pyrazine-2-yl}sulfanyl)acetic acid]

relative activity, single-shot autoubiquitination (WWP2-FL; 1% DMSO): better single-shot data
relative activity, single-shot autoubiquitination (WWP1-L34H; 1% DMSO): better single-shot data
Compound: O=C(O)CNC(=O)CSc1nc2nc(Cl)c(Cl)nc2[nH]1 [Compound 16, 2-({5,6-dichloro-1H-imidazo[4,5-b]pyrazine-2-yl}sulfanyl)acetamidoacetic acid]

UbcH7 Activity (UbcH7): 88.8 ± 0.7%
Compound: O=C(CSc1nc2nc(Cl)c(Cl)nc2[nH]1)N[C@@H](CO)C(=O)O [Compound 17, 3-hydroxy-2(S)-[({5,6-dichloro-1H-imidazo[4,5-b]pyrazine-2-yl}sulfanyl)acetamido]propanoic acid]

relative activity, single-shot autoubiquitination (WWP1-L34H; 1% DMSO): reducing relative activity
Compound: CCOC(=O)CSc1nc2nccnc2[nH]1 [Compound 20, Ethyl 2-({1H-imidazo[4,5-b]pyrazine}sulfanyl-2-yl)acetate]

relative activity, single-shot autoubiquitination (WWP1-L34H; 1% DMSO): reducing relative activity
Compound: CCOC(=O)CSc1nc2cncnc2[nH]1 [Compound 21, Ethyl 2-({9H-imidazo[4,5-d]pyrimidine}sulfan-8-yl)acetate]

relative activity, single-shot autoubiquitination (WWP2-FL; 1% DMSO): some decrease in activity
Compound: Nc1nc2nc(Br)cnc2s1 [Compound 26, 5-bromothiazolo[4,5-b]pyrazine-2-amine]

Continued, compound first:

Compound: CCOC(=O)Cc1cn2cc(Cl)ncc2n1 [Compound 2, Ethyl 6-chloroimidazo[1,2-a]pyrazine-2-acetate]
relative activity, single-shot autoubiquitination (WWP2-FL; 1% DMSO): some decrease in activity

Compound: CCCC(C)Sc1nc2nc(Cl)c(Cl)nc2[nH]1 (stereo not drawn) [Compound 8, 2-({5,6-dichloro-1H-imidazo[4,5-b]pyrazine-2-yl}sulfanyl)pentane]
relative activity, single-shot autoubiquitination (WWP2-FL; 1% DMSO): rather small decrease in relative activity
relative activity, single-shot autoubiquitination (WWP1-L34H; 1% DMSO): rather small decrease in relative activity

Compound: CCCC(=O)CSc1nc2nc(Cl)c(Cl)nc2[nH]1 [Compound 10]
relative activity, single-shot autoubiquitination (WWP2-FL; 1% DMSO): rather small decrease in relative activity
relative activity, single-shot autoubiquitination (WWP1-L34H; 1% DMSO): rather small decrease in relative activity

Compound: COC(=O)[C@H](COC(C)(C)C)NC(=O)CSc1nc2nc(Cl)c(Cl)nc2[nH]1 [Compound 14, Methyl 3-(tert-butoxy)-2(S)-[2-({5,6-dichloro-1H-imidazo[4,5-b]pyrazine-2-yl}sulfanyl)acetamido]propionate]
relative activity, single-shot autoubiquitination (WWP2-FL; 1% DMSO): rather small decrease in relative activity
relative activity, single-shot autoubiquitination (WWP1-L34H; 1% DMSO): rather small decrease in relative activity

Compound: O=C(/C=C/c1ccccc1Cl)c1ccc(O)cc1 [NSC-13151]
relative autoubiquitination activity, single-shot (WWP1-L34H; 1% DMSO): less than 50%
pIC50 (WWP1-L34H; [1]): 3.40

Compound: Cc1ccc(C=C2C(Cl)=C(Cl)C(Cl)=C2Cl)cc1 [NSC-26112]
relative autoubiquitination activity, single-shot (WWP2-FL; 1% DMSO): less than 50%

Compound: O=[N+]([O-])c1cc([N+](=O)[O-])c2cccnc2c1O [NSC-57103]
relative autoubiquitination activity, single-shot (WWP2-FL; 1% DMSO): less than 50%
pIC50 (WWP2-FL; [1]): 3.29

Compound: COc1cc(-c2ccc(Nc3ccccc3C(=O)O)c(OC)c2)ccc1Nc1ccccc1C(=O)O [NSC-73735]
pIC50 (WWP2-FL; [1]): 4.31
UbcH7 Activity (UbcH7): 62.5 ± 2.4%
relative autoubiquitination activity, single-shot (WWP1-L34H; 1% DMSO): less than 50%

Compound: CCc1oc2ccccc2c1C(=O)c1cc(Br)c(O)c(Br)c1 [NSC-85433]
pIC50 (WWP2-FL; [1]): 3.59
UbcH7 Activity (UbcH7): 7.5 ± 0.6%
relative autoubiquitination activity, single-shot (WWP1-L34H; 1% DMSO): less than 50%
pIC50 (WWP1-L34H; [1]): > 4.00 and 4.03

Compound: NC(=Nc1nc(-c2ccccn2)cc2ccccc12)c1ccccn1 [NSC-637578]
relative autoubiquitination activity, single-shot (WWP1-L34H; 1% DMSO): less than 50%

Compound: Ethyl 2-[({imidazo[4,5-c]pyridine}sulfan-2-yl-5N-(ethyl-2-acetate))]acetate [Compound 23]
relative activity, single-shot autoubiquitination (WWP1-L34H; 1% DMSO): reducing relative activity
